Measurements as given in article PMC4015918, “Conjugation to a SMAC mimetic potentiates sigma-2 ligand induced tumor cell death in ovarian cancer” (Molecular Cancer, 2014).

Tests used:
sigma-2 receptor = target: T1, sigma-2 receptor (Rattus norvegicus, UniProt Q5U3Y7); test: Sigma-2 receptor binding, [3H](+)-DTG displacement in rat liver membrane homogenates
T1 construct: guinea pig brain (sigma-1 assay) or rat liver (sigma-2 assay) membrane homogenates; from tissue; host or cells: rat liver membrane homogenate
T1 sequence (Q5U3Y7 1-176): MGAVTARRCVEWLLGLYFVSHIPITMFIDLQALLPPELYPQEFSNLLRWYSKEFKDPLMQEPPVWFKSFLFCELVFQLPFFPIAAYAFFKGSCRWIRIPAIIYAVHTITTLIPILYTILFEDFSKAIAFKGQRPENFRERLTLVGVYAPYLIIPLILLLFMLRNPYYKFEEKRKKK
Procedure: In order to verify its unaltered target recognition properties, the binding affinity of SW IV-134 to the sigma-2 receptor was determined using previously established methods employing rat liver membrane homogenates (see M&M and Ref [19] for details on receptor binding determinations). […] As another means to probe for the ability of SW IV-134 to bind to the sigma-2 receptor, we performed a competition assay using intact ovarian cancer cells and the fluorescently labeled SW43 homolog SW120 [21].
The sigma-1 and sigma-2 receptor binding affinities of SW IV-134 were determined as previously described. […] Each filter was washed three times with 200 μL of ice-cold wash buffer, and the bound radioactivity quantified using a Wallac 1450 MicroBeta liquid scintillation counter (Perkin Elmer, Boston, MA). Nonspecific binding was determined in the presence of 10 μM cold haloperidol. […]
Table S1. […] The sigma-1 and sigma-2 receptor binding affinities of S W I V-134 were determined as previously described (22). For details see also the Materials and Methods section. a Mean ± S .E .M .K i values were determined by at least three ex periments. b Ki for inhibiting the binding of [ 3H] […]

SKOV3 cells = test: Blocking study: competition with uptake of fluorescent sigma-2 ligand SW120, flow cytometry; assay type: cell-based; details: SKOV3 cells pretreated 30 min with increasing concentrations, then 10 nM SW120 for 30 min
Procedure: Figure 1 Compound structures and cell binding characteristics of SW IV-134. (A) The chemical structures of sigma-2 ligand SW43, the SMAC peptidomimetic SW IV-52, and the chemical conjugate SW IV-134. Note that the chirality of SW IV-52 is fully retained in the drug conjugate (asterisks). […] SKOV3 cells were pretreated with increasing concentration of SW IV-134, followed by incubation with SW120, prior to analysis by flow cytometry.
SKOV3 cells (3 × 10^4/well) were seeded into 6 cm plates for 24 hours before treatment. The cells were incubated with 5, 10, 50, and 100 μM doses of SW IV-134 for 30 minutes at 37°C. After this step, 10 nM SW120 was added to the cell culture medium containing SW IV-134. After 30 minute incubation at 37°C, cells were washed twice with phosphate buffered saline (PBS) and harvested with 0.05% trypsin EDTA (Life Technologies, Grand Island, NY). The cells were centrifuged at 1000 × g for 5 minutes and pellets washed twice with PBS. Internalization of SW120 was determined by flow cytometer (FACSCalibur, BD Biosciences, San Jose, CA).
Supplementary file 1476-4598-13-50-S2.pdf: Additional file 2: Figure S1 Receptor binding characteristics of the individual components of SW IV-134. SKOV3 cells were pretreated with increasing concentration of (A) SW43 and (B) SW IV-52, followed by incubation with SW120, prior to analysis by flow cytometry. […] Click here for file

NIK = test: Western blot for NF-қB-inducing kinase (NIK); assay type: cell-based; details: SKOV3 cells, 10 μM, 4 hours
Procedure: Figure 4 SW IV-134 engages in SMAC-dependent pathway activation. (A) SKOV3 cells were treated with vehicle only (Ctrl.), SW43 (10 μM), and SW IV-134 (10 μM) for 4 hours and cell lysates were subjected to Western blot analysis using antibodies against XIAP, cIAP-1, cIAP-2, NF-қB and NIK. While XIAP seems unaffected under the conditions used, cIAP-1 and cIAP-2 proteins are readily undetectable shortly post treatment. SW IV-134 treatment also leads to accumulation of NF-қB inducing kinase (NIK) and activation of NF-қB pathway. (B) SKOV3 cells were treated with SW IV-134 at the indicated doses either alone or in the presence of proteasome inhibitor MG132 (20 μM) for 18 hours. […] Cell viability was determined as described in the experimental methods (p < 0.011, Student’s t-test).
Cells were lysed in radioimmunoprecipitation assay buffer [50 mM Tris, 150 mM sodium chloride, 1.0 mM EDTA, 1% Nonidet P40, and 0.25% SDS (pH 7.0)], supplemented with complete protease inhibitor cocktail (Roche, Mannheim) and phosphatase inhibitor cocktail 1 (Sigma Chemical Co., St. Louis, MO). The protein concentration was determined using a BioRad Dc protein assay kit (Bio-Rad Laboratories, Hercules, CA). Lysates containing 30 μg of protein were run on a 12% polyacrylamide gel and transferred to a PVDF membrane (Bio-Rad Laboratories, Hercules, CA). […]

SMILES | Ki (sigma-2 receptor) [nM] | Blocking of SW120 uptake (SKOV3 cells) | Accumulation of NIK (NIK)
COc1ccc(C)cc1NC(=O)OC1CC2CCCC(C1)N2CCCCCCCCCCN (stereo not drawn) [SW43, reference compound] | 7.1 ± 1.3 | prevents uptake of the fluorescently labeled sigma-2 ligand SW120 in a dose-dependent fashion | not seen
COc1ccc(C)cc1NC(=O)OC1CC2CCCC(C1)N2CCCCCCCCCCN[C@@H](C)C(=O)N[C@H](C(=O)N1CCC[C@H]1C(=O)N[C@@H]1CCCc2ccccc21)C(C)(C)C (stereo partly drawn) [SW IV-134] | 22.6 ± 1.8 | dose-dependent reduction of SW120 signal intensity | accumulation of NIK
